Source: PubChem BioAssay (NCI)
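Five compound concentrations were applied to cells in 96-well plates for 48 hours; endpoints were derived by simple linear interpolation of the resulting dose-response curve. GI50 is the concentration that inhibits growth by half. At the TGI there is no net growth.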

Experiments:
Assay in all cases: NCI-60 cell line screen, 48 h
HCT-116 colon = system: HCT-116 colon
SK-MEL-2 melanoma = system: SK-MEL-2 melanoma
HOP-92 NSCLC = system: HOP-92 NSCLC
KM12 colon = system: KM12 colon
SW-620 colon = system: SW-620 colon
ACHN renal = system: ACHN renal
SR leukemia = system: SR leukemia
HCT-15 colon = system: HCT-15 colon
OVCAR-3 ovarian = system: OVCAR-3 ovarian

SMILES	TGI (HCT-116 colon) [µM]	TGI (SK-MEL-2 melanoma) [µM]	TGI (HOP-92 NSCLC) [µM]	TGI (KM12 colon) [µM]	TGI (SW-620 colon) [µM]	TGI (ACHN renal) [µM]	TGI (SR leukemia) [µM]	TGI (HCT-15 colon) [µM]	TGI (OVCAR-3 ovarian) [µM]	GI50 (HCT-116 colon) [µM]	GI50 (SK-MEL-2 melanoma) [µM]	GI50 (KM12 colon) [µM]	GI50 (OVCAR-3 ovarian) [µM]	GI50 (SW-620 colon) [µM]	GI50 (SR leukemia) [µM]	GI50 (HCT-15 colon) [µM]
COc1ccc([C@H]2CC(=O)N3CCCC3N2)cc1 (some centres not stated)	> 100	> 100	> 100	> 100	> 100	> 100	> 100	> 100	–	–	–	–	–	–	–	–
Cc1cc(O)c2c(c1)C(O)(c1ccc3c(c1O)C(=O)c1c(O)cc(C)cc1C3(O)C1OC(CO)C(O)C(O)C1O)c1cccc(O)c1C2=O (configuration not stated)	24.1	–	20.4	24	34	25.8	30.9	26.1	22.6	–	–	–	–	–	–	–
CCc1ccccc1NC(=O)C(=O)C(C(=O)c1ccc(OC)cc1)c1ccc(OC)cc1 (configuration not stated)	> 100	> 100	–	> 100	> 100	> 100	–	> 100	> 100	–	–	–	–	–	–	–
COc1ccc(C2C(Cl)C(=O)N2n2cnc3ccccc3c2=O)cc1OC (configuration not stated)	> 100	> 100	–	> 100	> 100	> 100	> 100	> 100	> 100	–	–	–	–	–	–	–
CC(C)c1ccc2nc3ccc(C(=O)NCCN(C)C)cn3c(=O)c2c1	27.7	–	–	33	28.6	94.2	63	28.5	> 100	–	–	–	–	–	–	–
CSc1nc2c(c(O)c(C)c(=O)n2C2OC(COC(C)=O)C(OC(C)=O)C(OC(C)=O)C2OC(C)=O)c(=O)n1C (configuration not stated)	> 100	> 100	> 100	> 100	> 100	> 100	–	> 100	> 100	–	–	–	–	–	–	–
C/C(=N/N(C=O)C[n+]1ccccc1)C(CN(CC(C)C)CC(C)C)C(=O)Nc1ccc(C)cc1C (configuration not stated)	> 100	> 100	> 100	> 100	> 100	> 100	> 100	–	> 100	–	–	–	–	–	–	–
COC(=O)C1=CCON(c2ccccc2)C1c1ccccc1 (configuration not stated)	–	> 100	–	> 100	> 100	> 100	> 100	> 100	> 100	–	–	–	–	–	–	–
COc1cc2nncc(Sc3cnnc4ccccc34)c2cc1OC	–	36.2	> 100	56.5	41.3	51.9	–	72.2	33.3	–	–	–	–	–	–	–
Clc1ccc([O][In]([O]c2ccc(Cl)cn2)[O]c2ccc(Cl)cn2)nc1	> 100	> 100	–	> 100	> 100	–	> 100	> 100	> 100	> 100	> 100	> 100	> 100	> 100	> 100	> 100
